# Data as given in patent US6869589B1, “Cryptate compounds and methods for diagnosis and therapy” (Australian Nuclear Science & Technology Organization, priority 1999, dated 2005).
# Assay: Biodistribution of ^64Cu complexes in balb/c mice
# Procedure: The biodistribution of the ^64Cu complexes of compounds (1), (3) and (4) (0.10 ml intravenous injection) were evaluated in balb/c mice (5 animals per time point) at 3, 5, 10, 15, 20 and 30 minute time intervals. Biodistribution studies were performed in duplicate.
structure (smiles),measurement,setting,value
NC12CNCCNCC(N)(CNCCNC1)CNCCNC2.[64Cu+2] [^64Cu-labelled compound (1)],% injected dose per gram,"BLADDER, 3 MIN",24.36 % INJECTED DOSE PER GRAM
same,% injected dose per gram,"BLADDER, 5 MIN",31.12 % INJECTED DOSE PER GRAM
same,% injected dose per gram,"BLADDER, 10 MIN",27.75 % INJECTED DOSE PER GRAM
same,% injected dose per gram,"BLADDER, 15 MIN",15.17 % INJECTED DOSE PER GRAM
same,% injected dose per gram,"BLADDER, 20 MIN",23.29 % INJECTED DOSE PER GRAM
same,% injected dose per gram,"BLADDER, 30 MIN",122.93 % INJECTED DOSE PER GRAM
same,% injected dose per gram,"BLOOD, 3 MIN",8.68 % INJECTED DOSE PER GRAM
same,% injected dose per gram,"BLOOD, 5 MIN",6.32 % INJECTED DOSE PER GRAM
same,% injected dose per gram,"BLOOD, 10 MIN",5.45 % INJECTED DOSE PER GRAM
same,% injected dose per gram,"BLOOD, 15 MIN",2.48 % INJECTED DOSE PER GRAM
same,% injected dose per gram,"BLOOD, 20 MIN",2.63 % INJECTED DOSE PER GRAM
same,% injected dose per gram,"BLOOD, 30 MIN",1.14 % INJECTED DOSE PER GRAM
same,% injected dose per gram,"BONE, 3 MIN",2.25 % INJECTED DOSE PER GRAM
same,% injected dose per gram,"BONE, 5 MIN",1.87 % INJECTED DOSE PER GRAM
same,% injected dose per gram,"BONE, 10 MIN",1.79 % INJECTED DOSE PER GRAM
same,% injected dose per gram,"BONE, 15 MIN",1.23 % INJECTED DOSE PER GRAM
same,% injected dose per gram,"BONE, 20 MIN",1.25 % INJECTED DOSE PER GRAM
same,% injected dose per gram,"BONE, 30 MIN",0.78 % INJECTED DOSE PER GRAM
same,% injected dose per gram,"GIT, 3 MIN",2.75 % INJECTED DOSE PER GRAM
same,% injected dose per gram,"GIT, 5 MIN",2.21 % INJECTED DOSE PER GRAM
same,% injected dose per gram,"GIT, 10 MIN",1.85 % INJECTED DOSE PER GRAM
same,% injected dose per gram,"GIT, 15 MIN",1.11 % INJECTED DOSE PER GRAM
same,% injected dose per gram,"GIT, 20 MIN",1.05 % INJECTED DOSE PER GRAM
same,% injected dose per gram,"GIT, 30 MIN",1.16 % INJECTED DOSE PER GRAM
same,% injected dose per gram,"HEART, 3 MIN",3.11 % INJECTED DOSE PER GRAM
same,% injected dose per gram,"HEART, 5 MIN",2.25 % INJECTED DOSE PER GRAM
same,% injected dose per gram,"HEART, 10 MIN",2.27 % INJECTED DOSE PER GRAM
same,% injected dose per gram,"HEART, 15 MIN",0.89 % INJECTED DOSE PER GRAM
same,% injected dose per gram,"HEART, 20 MIN",1.23 % INJECTED DOSE PER GRAM
same,% injected dose per gram,"HEART, 30 MIN",0.40 % INJECTED DOSE PER GRAM
same,% injected dose per gram,"KIDNEY, 3 MIN",23.18 % INJECTED DOSE PER GRAM
same,% injected dose per gram,"KIDNEY, 5 MIN",11.50 % INJECTED DOSE PER GRAM
same,% injected dose per gram,"KIDNEY, 10 MIN",12.80 % INJECTED DOSE PER GRAM
same,% injected dose per gram,"KIDNEY, 15 MIN",6.77 % INJECTED DOSE PER GRAM
same,% injected dose per gram,"KIDNEY, 20 MIN",7.77 % INJECTED DOSE PER GRAM
same,% injected dose per gram,"KIDNEY, 30 MIN",4.95 % INJECTED DOSE PER GRAM
same,% injected dose per gram,"LIVER, 3 MIN",2.29 % INJECTED DOSE PER GRAM
same,% injected dose per gram,"LIVER, 5 MIN",1.50 % INJECTED DOSE PER GRAM
same,% injected dose per gram,"LIVER, 10 MIN",1.42 % INJECTED DOSE PER GRAM
same,% injected dose per gram,"LIVER, 15 MIN",0.82 % INJECTED DOSE PER GRAM
same,% injected dose per gram,"LIVER, 20 MIN",0.69 % INJECTED DOSE PER GRAM
same,% injected dose per gram,"LIVER, 30 MIN",0.50 % INJECTED DOSE PER GRAM
same,% injected dose per gram,"LUNGS, 3 MIN",6.51 % INJECTED DOSE PER GRAM
same,% injected dose per gram,"LUNGS, 5 MIN",4.45 % INJECTED DOSE PER GRAM
same,% injected dose per gram,"LUNGS, 10 MIN",3.91 % INJECTED DOSE PER GRAM
same,% injected dose per gram,"LUNGS, 15 MIN",2.06 % INJECTED DOSE PER GRAM
same,% injected dose per gram,"LUNGS, 20 MIN",2.73 % INJECTED DOSE PER GRAM
same,% injected dose per gram,"LUNGS, 30 MIN",0.85 % INJECTED DOSE PER GRAM
same,% injected dose per gram,"MUSCLE, 3 MIN",1.81 % INJECTED DOSE PER GRAM
same,% injected dose per gram,"MUSCLE, 5 MIN",1.81 % INJECTED DOSE PER GRAM
same,% injected dose per gram,"MUSCLE, 10 MIN",2.39 % INJECTED DOSE PER GRAM
same,% injected dose per gram,"MUSCLE, 15 MIN",2.28 % INJECTED DOSE PER GRAM
same,% injected dose per gram,"MUSCLE, 20 MIN",1.17 % INJECTED DOSE PER GRAM
same,% injected dose per gram,"MUSCLE, 30 MIN",1.33 % INJECTED DOSE PER GRAM
same,% injected dose per gram,"SKIN, 3 MIN",5.82 % INJECTED DOSE PER GRAM
same,% injected dose per gram,"SKIN, 5 MIN",5.59 % INJECTED DOSE PER GRAM
same,% injected dose per gram,"SKIN, 10 MIN",5.48 % INJECTED DOSE PER GRAM
same,% injected dose per gram,"SKIN, 15 MIN",2.61 % INJECTED DOSE PER GRAM
same,% injected dose per gram,"SKIN, 20 MIN",2.96 % INJECTED DOSE PER GRAM
same,% injected dose per gram,"SKIN, 30 MIN",1.63 % INJECTED DOSE PER GRAM
same,% injected dose per gram,"SPLEEN, 3 MIN",2.09 % INJECTED DOSE PER GRAM
same,% injected dose per gram,"SPLEEN, 5 MIN",1.48 % INJECTED DOSE PER GRAM
same,% injected dose per gram,"SPLEEN, 10 MIN",1.54 % INJECTED DOSE PER GRAM
same,% injected dose per gram,"SPLEEN, 15 MIN",1.44 % INJECTED DOSE PER GRAM
same,% injected dose per gram,"SPLEEN, 20 MIN",0.69 % INJECTED DOSE PER GRAM
same,% injected dose per gram,"SPLEEN, 30 MIN",0.52 % INJECTED DOSE PER GRAM
same,% injected dose per gram,"STOMACH, 3 MIN",3.50 % INJECTED DOSE PER GRAM
same,% injected dose per gram,"STOMACH, 5 MIN",2.73 % INJECTED DOSE PER GRAM
same,% injected dose per gram,"STOMACH, 10 MIN",2.08 % INJECTED DOSE PER GRAM
same,% injected dose per gram,"STOMACH, 15 MIN",1.50 % INJECTED DOSE PER GRAM
same,% injected dose per gram,"STOMACH, 20 MIN",1.16 % INJECTED DOSE PER GRAM
same,% injected dose per gram,"STOMACH, 30 MIN",0.74 % INJECTED DOSE PER GRAM
